Data: patent US20050282743A1, “Molecular interactions in cells” (Arbor Vita Corporation, priority 2001, published 2005)

How the values were obtained:
Assay in all cases: G' assay (10 uM PL peptide), results of TABLE 7 and TABLE 12
Format in all cases: binding
[1] = biological target: T1, PDZ protein (GST-PDZ fusion) (Homo sapiens, UniProt Q12923); details: PDZ PTPL-1, PDZ Domain 4
T1 construct: made in house; host or cells: E. coli (DH5alpha, BL21 or JM109)
In short: (§1)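 Same steps as the G-zero format, apart from a peptide concentration of 10 uM in place of 20 uM in step 2. Amino-terminally biotinylated PL peptides bind GST-PDZ fusions, and retained peptide is quantified by 450 nm absorbance.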

[2] = biological target: T2, PDZ protein (GST-PDZ fusion) (Homo sapiens, UniProt Q02410)
T2 construct: made in house; host or cells: E. coli (DH5alpha, BL21 or JM109)
T2 sequence (Q02410 1-837): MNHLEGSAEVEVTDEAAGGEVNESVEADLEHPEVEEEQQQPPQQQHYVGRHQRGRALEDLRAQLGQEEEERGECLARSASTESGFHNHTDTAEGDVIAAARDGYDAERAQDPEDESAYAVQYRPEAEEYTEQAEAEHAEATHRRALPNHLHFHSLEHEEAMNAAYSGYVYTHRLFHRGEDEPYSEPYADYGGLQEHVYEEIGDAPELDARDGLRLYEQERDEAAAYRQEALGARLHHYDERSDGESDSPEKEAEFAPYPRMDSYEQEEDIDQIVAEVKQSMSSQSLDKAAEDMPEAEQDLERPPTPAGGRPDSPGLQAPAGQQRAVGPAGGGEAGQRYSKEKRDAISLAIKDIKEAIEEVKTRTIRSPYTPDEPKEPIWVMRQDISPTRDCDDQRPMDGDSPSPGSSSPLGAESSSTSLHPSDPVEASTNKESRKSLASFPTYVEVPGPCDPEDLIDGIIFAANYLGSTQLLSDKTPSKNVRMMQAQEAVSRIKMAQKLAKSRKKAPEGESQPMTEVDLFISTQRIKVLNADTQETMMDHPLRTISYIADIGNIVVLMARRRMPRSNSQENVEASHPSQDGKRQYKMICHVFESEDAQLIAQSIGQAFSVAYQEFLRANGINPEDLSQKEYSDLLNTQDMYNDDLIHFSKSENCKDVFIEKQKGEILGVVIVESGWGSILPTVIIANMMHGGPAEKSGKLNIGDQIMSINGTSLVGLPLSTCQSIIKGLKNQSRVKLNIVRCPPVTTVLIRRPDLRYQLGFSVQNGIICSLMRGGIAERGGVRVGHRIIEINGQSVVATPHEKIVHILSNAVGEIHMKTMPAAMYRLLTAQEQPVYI
In short: as §1

[3] = test system: PDZ protein (GST-PDZ fusion); details: PDZ BAI-1, PDZ Domain 4
In short: as §1

[4] = biological target: T3, PDZ protein (GST-PDZ fusion) (Homo sapiens, UniProt Q13796); details: PDZ hAPXL, PDZ Domain 1
T3 construct: made in house; host or cells: E. coli (DH5alpha, BL21 or JM109)
In short: as §1

[5] = biological target: T4, PDZ protein (GST-PDZ fusion) (Homo sapiens, UniProt Q6P0Q8)
T4 construct: made in house; host or cells: E. coli (DH5alpha, BL21 or JM109)
T4 sequence (Q6P0Q8 whole entry, the tested form may be a part): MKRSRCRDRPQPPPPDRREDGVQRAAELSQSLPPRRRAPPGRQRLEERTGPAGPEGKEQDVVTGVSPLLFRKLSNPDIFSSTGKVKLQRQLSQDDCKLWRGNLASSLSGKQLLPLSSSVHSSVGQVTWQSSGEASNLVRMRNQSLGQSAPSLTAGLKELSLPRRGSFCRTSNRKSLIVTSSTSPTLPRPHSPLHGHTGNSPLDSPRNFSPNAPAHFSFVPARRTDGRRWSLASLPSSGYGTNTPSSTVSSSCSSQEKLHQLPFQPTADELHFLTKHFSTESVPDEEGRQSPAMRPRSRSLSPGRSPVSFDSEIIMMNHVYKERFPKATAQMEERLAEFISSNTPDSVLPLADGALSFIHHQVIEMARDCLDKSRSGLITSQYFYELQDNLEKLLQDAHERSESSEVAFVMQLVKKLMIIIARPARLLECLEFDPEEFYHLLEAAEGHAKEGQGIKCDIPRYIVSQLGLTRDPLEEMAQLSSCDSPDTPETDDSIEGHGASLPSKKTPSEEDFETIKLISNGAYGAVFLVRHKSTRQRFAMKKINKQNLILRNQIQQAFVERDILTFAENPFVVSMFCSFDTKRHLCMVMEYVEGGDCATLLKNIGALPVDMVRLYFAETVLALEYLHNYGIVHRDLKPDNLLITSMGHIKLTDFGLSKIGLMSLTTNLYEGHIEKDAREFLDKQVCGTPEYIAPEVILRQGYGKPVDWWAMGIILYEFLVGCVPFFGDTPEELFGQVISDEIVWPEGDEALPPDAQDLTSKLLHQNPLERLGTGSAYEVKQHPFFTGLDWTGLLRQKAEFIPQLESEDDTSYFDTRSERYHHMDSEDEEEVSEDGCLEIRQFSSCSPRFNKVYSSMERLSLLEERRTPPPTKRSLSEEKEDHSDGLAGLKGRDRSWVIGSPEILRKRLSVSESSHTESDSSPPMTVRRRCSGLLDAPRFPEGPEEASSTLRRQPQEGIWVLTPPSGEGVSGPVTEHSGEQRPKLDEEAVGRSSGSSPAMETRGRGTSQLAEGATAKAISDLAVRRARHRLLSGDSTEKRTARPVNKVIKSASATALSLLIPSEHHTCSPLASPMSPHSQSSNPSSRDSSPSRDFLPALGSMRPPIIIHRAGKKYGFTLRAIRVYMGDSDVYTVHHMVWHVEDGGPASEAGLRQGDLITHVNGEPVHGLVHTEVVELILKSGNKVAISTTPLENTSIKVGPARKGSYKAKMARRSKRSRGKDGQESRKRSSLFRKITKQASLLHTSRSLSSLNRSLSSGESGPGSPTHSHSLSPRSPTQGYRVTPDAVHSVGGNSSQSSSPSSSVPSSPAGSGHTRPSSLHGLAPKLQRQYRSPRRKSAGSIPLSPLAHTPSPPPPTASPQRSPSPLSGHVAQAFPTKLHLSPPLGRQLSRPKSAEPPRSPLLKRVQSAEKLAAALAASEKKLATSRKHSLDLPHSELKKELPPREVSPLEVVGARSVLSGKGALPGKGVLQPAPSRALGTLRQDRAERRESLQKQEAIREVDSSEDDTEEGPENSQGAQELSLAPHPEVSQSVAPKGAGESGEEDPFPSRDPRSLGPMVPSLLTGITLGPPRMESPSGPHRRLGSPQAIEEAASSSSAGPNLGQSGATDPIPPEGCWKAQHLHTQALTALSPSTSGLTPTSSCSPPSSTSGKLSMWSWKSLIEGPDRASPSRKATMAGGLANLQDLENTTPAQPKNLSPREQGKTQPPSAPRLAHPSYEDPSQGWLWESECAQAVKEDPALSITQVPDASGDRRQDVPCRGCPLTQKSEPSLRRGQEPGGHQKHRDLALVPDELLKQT
In short: as §1

[6] = biological target: T5, PDZ protein (GST-PDZ fusion) (Homo sapiens, UniProt O75970); details: PDZ MUPP-1, PDZ Domain 10
T5 construct: made in house; host or cells: E. coli (DH5alpha, BL21 or JM109)
T5 sequence (O75970 whole entry, the tested form may be a part): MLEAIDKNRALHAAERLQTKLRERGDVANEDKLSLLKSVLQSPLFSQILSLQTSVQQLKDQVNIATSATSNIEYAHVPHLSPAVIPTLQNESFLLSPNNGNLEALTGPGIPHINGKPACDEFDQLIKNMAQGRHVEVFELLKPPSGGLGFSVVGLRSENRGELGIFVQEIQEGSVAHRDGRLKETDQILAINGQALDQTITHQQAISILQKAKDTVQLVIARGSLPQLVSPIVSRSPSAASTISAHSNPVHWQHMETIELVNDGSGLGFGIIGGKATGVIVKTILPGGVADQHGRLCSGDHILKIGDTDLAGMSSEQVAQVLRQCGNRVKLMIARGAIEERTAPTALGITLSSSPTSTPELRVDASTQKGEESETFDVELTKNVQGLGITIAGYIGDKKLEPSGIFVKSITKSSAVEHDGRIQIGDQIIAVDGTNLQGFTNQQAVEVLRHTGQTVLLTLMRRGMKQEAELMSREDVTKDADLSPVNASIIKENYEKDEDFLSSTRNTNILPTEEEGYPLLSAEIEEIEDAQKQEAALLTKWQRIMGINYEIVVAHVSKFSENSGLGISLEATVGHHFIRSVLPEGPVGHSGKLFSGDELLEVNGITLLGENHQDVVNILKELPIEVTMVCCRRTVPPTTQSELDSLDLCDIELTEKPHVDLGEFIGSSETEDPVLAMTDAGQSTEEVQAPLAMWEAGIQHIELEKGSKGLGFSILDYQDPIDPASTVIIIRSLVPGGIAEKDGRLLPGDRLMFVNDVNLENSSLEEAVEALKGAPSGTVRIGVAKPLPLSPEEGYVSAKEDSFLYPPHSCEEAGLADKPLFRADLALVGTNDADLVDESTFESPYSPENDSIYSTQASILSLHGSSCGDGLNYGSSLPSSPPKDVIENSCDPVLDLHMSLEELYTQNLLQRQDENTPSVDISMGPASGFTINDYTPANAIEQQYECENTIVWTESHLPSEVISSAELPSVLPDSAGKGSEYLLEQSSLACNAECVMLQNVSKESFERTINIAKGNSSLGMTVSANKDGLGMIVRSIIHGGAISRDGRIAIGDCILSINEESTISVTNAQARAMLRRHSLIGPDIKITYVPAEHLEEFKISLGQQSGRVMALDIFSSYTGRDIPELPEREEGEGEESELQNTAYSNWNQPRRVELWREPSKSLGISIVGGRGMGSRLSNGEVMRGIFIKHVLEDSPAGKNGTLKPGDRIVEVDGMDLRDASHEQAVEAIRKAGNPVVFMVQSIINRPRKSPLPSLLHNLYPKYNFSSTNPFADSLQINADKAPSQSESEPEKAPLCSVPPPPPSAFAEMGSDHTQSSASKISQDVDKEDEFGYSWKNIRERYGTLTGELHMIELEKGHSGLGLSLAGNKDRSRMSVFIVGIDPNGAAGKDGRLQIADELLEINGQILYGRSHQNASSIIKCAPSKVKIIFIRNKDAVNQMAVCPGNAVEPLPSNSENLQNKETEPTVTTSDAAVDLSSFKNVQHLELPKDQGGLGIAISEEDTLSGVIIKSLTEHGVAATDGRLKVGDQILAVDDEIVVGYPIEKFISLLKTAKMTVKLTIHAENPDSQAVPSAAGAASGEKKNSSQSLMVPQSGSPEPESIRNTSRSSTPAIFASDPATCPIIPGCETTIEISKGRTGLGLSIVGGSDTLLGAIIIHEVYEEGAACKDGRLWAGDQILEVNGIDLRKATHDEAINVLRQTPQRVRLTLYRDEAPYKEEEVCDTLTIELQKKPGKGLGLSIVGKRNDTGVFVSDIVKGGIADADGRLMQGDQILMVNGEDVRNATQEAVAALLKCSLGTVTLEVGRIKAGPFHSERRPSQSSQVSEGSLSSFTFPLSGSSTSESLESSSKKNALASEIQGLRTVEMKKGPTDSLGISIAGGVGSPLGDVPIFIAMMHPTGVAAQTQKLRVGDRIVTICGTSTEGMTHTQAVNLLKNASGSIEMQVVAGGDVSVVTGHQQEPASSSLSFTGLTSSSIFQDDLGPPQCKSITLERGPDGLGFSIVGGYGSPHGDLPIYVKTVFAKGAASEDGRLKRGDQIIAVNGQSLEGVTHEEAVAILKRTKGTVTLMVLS
In short: as §1

[7] = biological target: T6, PDZ protein (GST-PDZ fusion) (Homo sapiens, UniProt Q99767); details: PDZ X11-beta, PDZ Domain 2
T6 construct: made in house; host or cells: E. coli (DH5alpha, BL21 or JM109)
T6 sequence (Q99767 1-749): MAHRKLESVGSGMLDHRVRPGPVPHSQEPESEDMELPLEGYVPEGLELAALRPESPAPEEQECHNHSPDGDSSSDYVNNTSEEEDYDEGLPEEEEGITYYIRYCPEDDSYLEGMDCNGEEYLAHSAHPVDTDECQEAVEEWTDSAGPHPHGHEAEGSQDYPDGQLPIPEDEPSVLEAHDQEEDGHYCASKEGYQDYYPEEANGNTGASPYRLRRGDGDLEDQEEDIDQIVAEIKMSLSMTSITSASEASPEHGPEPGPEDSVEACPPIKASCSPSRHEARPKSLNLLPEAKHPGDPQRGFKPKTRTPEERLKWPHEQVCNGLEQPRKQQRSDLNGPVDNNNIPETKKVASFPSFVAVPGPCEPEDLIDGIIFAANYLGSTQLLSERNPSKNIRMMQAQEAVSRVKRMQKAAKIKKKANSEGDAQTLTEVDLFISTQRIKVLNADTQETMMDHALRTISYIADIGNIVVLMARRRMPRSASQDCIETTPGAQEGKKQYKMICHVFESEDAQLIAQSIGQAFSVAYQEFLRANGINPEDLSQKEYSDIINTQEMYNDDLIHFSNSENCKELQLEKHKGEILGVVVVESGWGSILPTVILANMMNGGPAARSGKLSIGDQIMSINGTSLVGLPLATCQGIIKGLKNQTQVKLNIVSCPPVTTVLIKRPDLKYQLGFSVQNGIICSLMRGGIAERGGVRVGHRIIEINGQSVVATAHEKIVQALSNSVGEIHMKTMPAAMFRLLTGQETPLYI
In short: as §1

Classification [1]: 1 (A450 nm 0-1)
Classification ([2]; PDZ Mint 1, PDZ Domain 1, 2): 1 (A450 nm 0-1)
Classification ([2]; PDZ Mint 1, PDZ Domain 2): 1 (A450 nm 0-1)
Classification [4]: 1 (A450 nm 0-1)
Classification ([5]; PDZ KIAA807): 1 (A450 nm 0-1)
Classification ([5]; PDZ KIAA0807(S), PDZ Domain 1): 1 (A450 nm 0-1)
Classification [6]: 1 (A450 nm 0-1)
Classification [7]: 1 (A450 nm 0-1)
Sequence: NGGFAVDKSDTISFTQTSQF [glutamate transporter 3]
Classification [3]: 1 (A450 nm 0-1)
